Like-named read-outs stand apart in the source and are kept apart here.
Experiments:
Type in all cases: binding
various enzymes [1] = target: various enzymes (Homo sapiens, UniProt P36507); conditions: compound 1 uM
Description: (§1) Ambit profiling was conducted in accordance with the manufacturer's instructions.

various enzymes [2] = target: various enzymes (Homo sapiens, UniProt P08581); conditions: compound 1 uM
Description: as §1

various enzymes [3] = target: various enzymes (Homo sapiens, UniProt Q9H3Y6); conditions: compound 1 uM
Description: as §1

various enzymes [4] = target: various enzymes (Homo sapiens, UniProt P07949); conditions: compound 1 uM
Chain of various enzymes (Homo sapiens, UniProt P07949) (P07949 29-1114): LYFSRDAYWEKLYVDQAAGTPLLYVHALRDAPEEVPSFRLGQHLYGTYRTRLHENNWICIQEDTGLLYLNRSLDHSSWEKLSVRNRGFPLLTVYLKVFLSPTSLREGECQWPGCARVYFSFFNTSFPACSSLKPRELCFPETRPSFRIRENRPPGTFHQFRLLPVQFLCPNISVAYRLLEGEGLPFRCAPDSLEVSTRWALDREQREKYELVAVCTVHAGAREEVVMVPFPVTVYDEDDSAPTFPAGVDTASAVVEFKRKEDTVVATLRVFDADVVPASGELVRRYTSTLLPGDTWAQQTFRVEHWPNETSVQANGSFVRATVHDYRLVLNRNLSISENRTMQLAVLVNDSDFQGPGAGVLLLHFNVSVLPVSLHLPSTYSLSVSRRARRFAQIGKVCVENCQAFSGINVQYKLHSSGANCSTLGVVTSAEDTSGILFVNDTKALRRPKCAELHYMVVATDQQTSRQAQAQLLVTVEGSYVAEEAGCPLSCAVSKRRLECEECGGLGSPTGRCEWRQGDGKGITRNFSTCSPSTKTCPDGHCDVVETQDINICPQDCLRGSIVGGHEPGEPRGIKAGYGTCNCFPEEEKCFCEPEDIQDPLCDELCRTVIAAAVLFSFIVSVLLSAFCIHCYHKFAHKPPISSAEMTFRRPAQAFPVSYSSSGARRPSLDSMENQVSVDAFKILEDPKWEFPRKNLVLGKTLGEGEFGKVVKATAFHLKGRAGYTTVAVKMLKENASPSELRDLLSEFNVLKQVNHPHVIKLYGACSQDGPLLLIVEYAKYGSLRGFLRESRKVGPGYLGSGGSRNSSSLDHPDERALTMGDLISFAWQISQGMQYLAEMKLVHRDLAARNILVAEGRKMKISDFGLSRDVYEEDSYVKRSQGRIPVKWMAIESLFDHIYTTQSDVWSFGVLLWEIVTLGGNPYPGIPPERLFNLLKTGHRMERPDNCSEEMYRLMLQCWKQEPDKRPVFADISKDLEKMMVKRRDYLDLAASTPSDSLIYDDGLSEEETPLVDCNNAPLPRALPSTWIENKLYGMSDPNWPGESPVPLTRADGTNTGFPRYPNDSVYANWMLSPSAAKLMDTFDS
Description: as §1

various enzymes [5] = target: various enzymes (Homo sapiens, UniProt P22455); conditions: compound 1 uM
Description: as §1

various enzymes [6] = target: various enzymes (Homo sapiens, UniProt Q9UPZ9); conditions: compound 1 uM
Chain of various enzymes (Homo sapiens, UniProt Q9UPZ9) (Q9UPZ9 whole entry): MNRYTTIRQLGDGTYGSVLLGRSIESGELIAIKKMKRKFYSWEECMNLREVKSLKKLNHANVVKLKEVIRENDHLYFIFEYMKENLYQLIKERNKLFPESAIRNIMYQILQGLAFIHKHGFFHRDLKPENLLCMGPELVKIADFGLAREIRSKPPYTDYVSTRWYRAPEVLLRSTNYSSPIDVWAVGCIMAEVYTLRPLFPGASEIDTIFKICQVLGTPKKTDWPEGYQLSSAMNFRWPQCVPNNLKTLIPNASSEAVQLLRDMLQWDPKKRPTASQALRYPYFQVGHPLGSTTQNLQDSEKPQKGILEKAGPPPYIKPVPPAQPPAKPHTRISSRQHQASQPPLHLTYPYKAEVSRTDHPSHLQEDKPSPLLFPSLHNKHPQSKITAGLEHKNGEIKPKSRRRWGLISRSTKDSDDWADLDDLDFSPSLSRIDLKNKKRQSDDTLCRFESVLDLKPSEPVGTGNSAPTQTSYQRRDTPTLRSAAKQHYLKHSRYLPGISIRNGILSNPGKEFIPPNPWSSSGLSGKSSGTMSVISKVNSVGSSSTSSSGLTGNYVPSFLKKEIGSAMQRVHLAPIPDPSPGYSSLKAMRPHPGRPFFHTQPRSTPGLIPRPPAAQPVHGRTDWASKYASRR
Description: as §1

various enzymes [7] = target: various enzymes (Homo sapiens, UniProt Q15759); conditions: compound 1 uM
Chain of various enzymes (Homo sapiens, UniProt Q15759) (Q15759 whole entry): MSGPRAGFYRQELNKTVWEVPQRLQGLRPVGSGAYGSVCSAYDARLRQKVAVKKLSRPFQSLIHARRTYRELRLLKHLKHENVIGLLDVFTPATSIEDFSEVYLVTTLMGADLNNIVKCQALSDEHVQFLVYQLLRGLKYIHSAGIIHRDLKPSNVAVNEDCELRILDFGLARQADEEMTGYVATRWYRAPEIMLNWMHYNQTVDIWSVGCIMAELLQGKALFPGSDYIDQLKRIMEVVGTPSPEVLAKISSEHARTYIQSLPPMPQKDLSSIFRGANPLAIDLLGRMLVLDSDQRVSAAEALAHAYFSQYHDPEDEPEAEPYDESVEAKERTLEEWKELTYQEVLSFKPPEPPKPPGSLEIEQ
Description: as §1

various enzymes [8] = target: various enzymes (Homo sapiens, UniProt P42336, H1047Y)
Description: as §1

various enzymes [9] = target: various enzymes (Homo sapiens, UniProt Q9BUB5); conditions: compound 1 uM
Description: as §1

various enzymes [10] = target: various enzymes (Homo sapiens, UniProt P22607, G697C)
Description: as §1

various enzymes [11] = target: T1, various enzymes (Homo sapiens, UniProt Q9NRM7); conditions: compound 1 uM
T1 sequence (Q9NRM7 1-1088): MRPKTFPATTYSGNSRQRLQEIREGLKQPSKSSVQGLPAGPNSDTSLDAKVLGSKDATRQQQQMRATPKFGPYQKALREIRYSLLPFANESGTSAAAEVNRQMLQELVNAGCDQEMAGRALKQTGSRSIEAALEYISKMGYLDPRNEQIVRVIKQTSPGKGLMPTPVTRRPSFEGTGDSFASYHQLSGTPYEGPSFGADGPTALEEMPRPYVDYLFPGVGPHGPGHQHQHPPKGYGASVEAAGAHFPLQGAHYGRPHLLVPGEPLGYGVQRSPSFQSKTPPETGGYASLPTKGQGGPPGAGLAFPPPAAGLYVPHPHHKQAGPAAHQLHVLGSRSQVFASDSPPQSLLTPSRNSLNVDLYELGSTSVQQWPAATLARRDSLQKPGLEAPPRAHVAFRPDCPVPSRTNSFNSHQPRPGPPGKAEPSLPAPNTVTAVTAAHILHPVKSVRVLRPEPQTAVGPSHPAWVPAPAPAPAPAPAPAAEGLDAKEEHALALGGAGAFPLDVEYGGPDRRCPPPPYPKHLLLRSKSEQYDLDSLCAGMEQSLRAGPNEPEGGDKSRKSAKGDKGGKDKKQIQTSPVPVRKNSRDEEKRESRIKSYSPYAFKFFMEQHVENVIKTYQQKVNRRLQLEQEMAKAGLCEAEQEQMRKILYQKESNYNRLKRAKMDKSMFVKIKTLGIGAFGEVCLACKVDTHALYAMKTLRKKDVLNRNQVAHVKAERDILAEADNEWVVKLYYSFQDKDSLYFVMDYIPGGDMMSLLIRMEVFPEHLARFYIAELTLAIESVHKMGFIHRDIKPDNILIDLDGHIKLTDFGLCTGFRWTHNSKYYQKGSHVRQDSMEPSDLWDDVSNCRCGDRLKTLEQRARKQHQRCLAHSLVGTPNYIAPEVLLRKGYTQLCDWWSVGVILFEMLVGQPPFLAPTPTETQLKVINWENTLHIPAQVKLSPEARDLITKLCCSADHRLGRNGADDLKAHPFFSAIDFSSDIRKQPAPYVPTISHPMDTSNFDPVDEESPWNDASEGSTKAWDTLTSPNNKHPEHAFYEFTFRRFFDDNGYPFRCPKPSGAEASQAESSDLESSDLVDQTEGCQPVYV
Description: as §1

various enzymes [12] = target: various enzymes (Homo sapiens, UniProt P10721, D816H)
Description: as §1

various enzymes [13] = target: various enzymes (Homo sapiens, UniProt P51957); conditions: compound 1 uM
Description: as §1

various enzymes [14] = target: various enzymes (Homo sapiens, UniProt Q9Y2K2); conditions: compound 1 uM
Description: as §1

various enzymes [15] = target: various enzymes (Homo sapiens, UniProt O95747); conditions: compound 1 uM
Description: as §1

various enzymes [16] = target: various enzymes (Homo sapiens, UniProt Q7KZI7); conditions: compound 1 uM
Description: as §1

various enzymes [17] = target: various enzymes (Homo sapiens, UniProt P29597); conditions: compound 1 uM
Chain of various enzymes (Homo sapiens, UniProt P29597) (P29597 whole entry): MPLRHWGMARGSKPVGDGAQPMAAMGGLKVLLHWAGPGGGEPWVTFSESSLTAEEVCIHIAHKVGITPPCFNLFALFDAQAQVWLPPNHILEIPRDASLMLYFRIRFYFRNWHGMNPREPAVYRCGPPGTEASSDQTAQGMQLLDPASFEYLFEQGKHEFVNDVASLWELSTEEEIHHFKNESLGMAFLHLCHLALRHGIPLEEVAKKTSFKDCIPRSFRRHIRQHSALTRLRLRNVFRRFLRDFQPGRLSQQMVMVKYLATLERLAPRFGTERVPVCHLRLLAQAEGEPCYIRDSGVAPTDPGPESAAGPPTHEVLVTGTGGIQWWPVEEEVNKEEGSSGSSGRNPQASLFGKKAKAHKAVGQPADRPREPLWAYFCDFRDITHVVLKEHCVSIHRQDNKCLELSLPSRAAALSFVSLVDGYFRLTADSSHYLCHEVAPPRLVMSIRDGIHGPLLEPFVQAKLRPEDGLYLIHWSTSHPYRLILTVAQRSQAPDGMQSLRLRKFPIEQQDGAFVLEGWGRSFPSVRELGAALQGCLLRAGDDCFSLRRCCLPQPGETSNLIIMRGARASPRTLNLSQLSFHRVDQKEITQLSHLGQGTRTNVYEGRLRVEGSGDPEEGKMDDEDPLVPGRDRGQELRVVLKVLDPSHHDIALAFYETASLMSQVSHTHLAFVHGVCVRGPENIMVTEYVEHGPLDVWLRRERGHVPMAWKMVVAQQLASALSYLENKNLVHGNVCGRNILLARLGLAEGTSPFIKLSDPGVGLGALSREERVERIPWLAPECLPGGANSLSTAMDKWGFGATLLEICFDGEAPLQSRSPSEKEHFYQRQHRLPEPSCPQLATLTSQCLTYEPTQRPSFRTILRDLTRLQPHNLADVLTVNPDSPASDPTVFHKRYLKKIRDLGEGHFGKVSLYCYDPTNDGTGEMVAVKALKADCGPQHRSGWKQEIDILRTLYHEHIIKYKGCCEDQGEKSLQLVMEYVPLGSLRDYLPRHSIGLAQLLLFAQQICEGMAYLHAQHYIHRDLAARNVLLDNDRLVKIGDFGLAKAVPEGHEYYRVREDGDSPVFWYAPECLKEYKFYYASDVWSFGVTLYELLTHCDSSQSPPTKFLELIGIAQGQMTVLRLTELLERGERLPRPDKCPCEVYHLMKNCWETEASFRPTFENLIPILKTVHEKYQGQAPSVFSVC
Description: as §1

various enzymes [18] = target: various enzymes (Homo sapiens, UniProt Q92918); conditions: compound 1 uM
Chain of various enzymes (Homo sapiens, UniProt Q92918) (Q92918 whole entry): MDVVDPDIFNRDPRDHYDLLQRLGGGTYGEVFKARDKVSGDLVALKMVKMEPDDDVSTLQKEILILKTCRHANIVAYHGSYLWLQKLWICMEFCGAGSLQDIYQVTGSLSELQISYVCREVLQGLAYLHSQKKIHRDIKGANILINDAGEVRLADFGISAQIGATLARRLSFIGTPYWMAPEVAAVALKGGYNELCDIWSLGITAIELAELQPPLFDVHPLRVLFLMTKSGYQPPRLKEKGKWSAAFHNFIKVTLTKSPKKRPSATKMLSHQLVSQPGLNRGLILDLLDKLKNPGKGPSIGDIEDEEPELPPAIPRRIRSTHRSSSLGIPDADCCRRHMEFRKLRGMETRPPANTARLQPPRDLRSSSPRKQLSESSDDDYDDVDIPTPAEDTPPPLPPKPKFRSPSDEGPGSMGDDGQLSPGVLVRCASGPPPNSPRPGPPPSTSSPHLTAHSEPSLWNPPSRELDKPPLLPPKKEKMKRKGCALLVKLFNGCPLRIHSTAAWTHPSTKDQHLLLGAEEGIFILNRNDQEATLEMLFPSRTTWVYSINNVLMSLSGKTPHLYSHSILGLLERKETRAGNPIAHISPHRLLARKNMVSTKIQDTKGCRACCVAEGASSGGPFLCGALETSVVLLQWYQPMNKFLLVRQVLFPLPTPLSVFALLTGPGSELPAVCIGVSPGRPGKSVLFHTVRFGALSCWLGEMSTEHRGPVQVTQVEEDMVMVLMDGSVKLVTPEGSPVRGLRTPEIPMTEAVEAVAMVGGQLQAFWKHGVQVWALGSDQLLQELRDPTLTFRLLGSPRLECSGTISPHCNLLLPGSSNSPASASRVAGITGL
Description: as §1

various enzymes [19] = target: various enzymes (Homo sapiens, UniProt P07333); conditions: compound 1 uM
Chain of various enzymes (Homo sapiens, UniProt P07333) (P07333 20-972): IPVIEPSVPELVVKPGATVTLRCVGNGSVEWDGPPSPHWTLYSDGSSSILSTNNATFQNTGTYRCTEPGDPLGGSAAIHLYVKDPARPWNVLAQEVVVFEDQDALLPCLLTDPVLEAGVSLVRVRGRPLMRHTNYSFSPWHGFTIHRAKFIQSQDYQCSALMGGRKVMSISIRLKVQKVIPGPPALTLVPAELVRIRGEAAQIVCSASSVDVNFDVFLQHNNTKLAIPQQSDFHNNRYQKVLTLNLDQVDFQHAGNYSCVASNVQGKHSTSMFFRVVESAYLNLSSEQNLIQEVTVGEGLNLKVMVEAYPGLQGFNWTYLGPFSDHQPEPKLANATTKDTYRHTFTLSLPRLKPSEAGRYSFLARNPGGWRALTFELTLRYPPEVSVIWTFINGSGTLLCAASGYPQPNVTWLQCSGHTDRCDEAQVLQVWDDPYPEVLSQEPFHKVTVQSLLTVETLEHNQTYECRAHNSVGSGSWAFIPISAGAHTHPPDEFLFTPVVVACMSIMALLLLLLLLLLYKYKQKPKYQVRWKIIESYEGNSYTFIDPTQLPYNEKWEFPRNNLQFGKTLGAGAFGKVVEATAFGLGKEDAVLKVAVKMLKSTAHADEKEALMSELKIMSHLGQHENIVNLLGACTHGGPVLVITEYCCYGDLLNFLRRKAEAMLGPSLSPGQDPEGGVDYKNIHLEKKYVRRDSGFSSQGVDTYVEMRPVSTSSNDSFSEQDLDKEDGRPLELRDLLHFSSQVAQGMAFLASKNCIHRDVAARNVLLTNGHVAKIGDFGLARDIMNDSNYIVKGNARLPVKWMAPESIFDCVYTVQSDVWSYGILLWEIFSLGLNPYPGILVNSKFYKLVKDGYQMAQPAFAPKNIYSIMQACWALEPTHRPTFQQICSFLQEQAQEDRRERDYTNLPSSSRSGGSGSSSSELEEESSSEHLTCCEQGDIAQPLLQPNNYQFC
Description: as §1

various enzymes [20] = target: various enzymes (Homo sapiens, UniProt Q13557); conditions: compound 1 uM
Description: as §1

various enzymes [21] = target: various enzymes (Homo sapiens, UniProt Q96NX5); conditions: compound 1 uM
Description: as §1

various enzymes [22] = target: various enzymes (Homo sapiens, UniProt P49760); conditions: compound 1 uM
Description: as §1

various enzymes [23] = target: various enzymes (Homo sapiens, UniProt Q8IWQ3); conditions: compound 1 uM
Description: as §1

various enzymes [24] = target: various enzymes (Homo sapiens, UniProt P42336, M1043I)
Description: as §1

various enzymes [25] = target: various enzymes (Homo sapiens, UniProt Q9UQ88); conditions: compound 1 uM
Description: as §1

various enzymes [26] = target: various enzymes (Homo sapiens, UniProt Q96SB4); conditions: compound 1 uM
Description: as §1

various enzymes [27] = target: various enzymes (Homo sapiens, UniProt Q9H1R3); conditions: compound 1 uM
Description: as §1

various enzymes [28] = target: various enzymes (Homo sapiens, UniProt Q6ZN16); conditions: compound 1 uM
Description: as §1

various enzymes [29] = target: various enzymes (Homo sapiens, UniProt P15056, V600E)
Description: as §1

| SMILES | Ambit profiling: MEK2 (various enzymes [1]) | Ambit profiling: MET (various enzymes [2]) | Ambit profiling: SRMS (various enzymes [3]) | Ambit profiling: RET (various enzymes [4]) | Ambit profiling: FGFR4 (various enzymes [5]) | Ambit profiling: ICK (various enzymes [6]) | Ambit profiling: p38-beta (various enzymes [7]) | Ambit profiling: MKNK1 (various enzymes [9]) | Ambit profiling: LATS2 (various enzymes [11]) | Ambit profiling: NEK4 (various enzymes [13]) | Ambit profiling: QSK (various enzymes [14]) | Ambit profiling: OSR1 (various enzymes [15]) | Ambit profiling: MARK2 (various enzymes [16]) | Ambit profiling: TYK2(JH1domain-catalytic) (various enzymes [17]) | Ambit profiling: TYK2(JH2domain-pseudokinase) (various enzymes [17]) | Ambit profiling: HPK1 (various enzymes [18]) | Ambit profiling: CSF1R (various enzymes [19]) | Ambit profiling: CSF1R-autoinhibited (various enzymes [19]) | Ambit profiling: CAMK2D (various enzymes [20]) | Ambit profiling: CAMK1G (various enzymes [21]) | further results |
| --- | --- | --- | --- | --- | --- | --- | --- | --- | --- | --- | --- | --- | --- | --- | --- | --- | --- | --- | --- | --- | --- |
| CC(C)N1Cc2nn(C)cc2-c2cnc3[nH]cc(c3c2)-c2cn(nc2C(F)(F)F)CCCC1=O [Compound 45, (Z)-5-isopropyl-31-methyl-13-(trifluoromethyl)-11H,21H,31H-5-aza-2(3,5)-pyrrolo[2,3-b]pyridina-1(4,1),3(4,3)-dipyrazolacyclononaphan-6-one] | 12 | 11 | 69 | 0.15 | 85 | 0.95 | 100 | 100 | 100 | 93 | 32 | 100 | 48 | 19 | 100 | 5.9 | 8.4 | 39 | 15 | 88 | Ambit profiling: PIK3CA(H1047Y) (various enzymes [8]; compound 1 uM): 84; Ambit profiling: FGFR3(G697C) (various enzymes [10]; compound 1 uM): 4.5; Ambit profiling: KIT(D816H) (various enzymes [12]; compound 1 uM): 35; Ambit profiling: CLK2 (various enzymes [22]): 4.3; Ambit profiling: BRSK2 (various enzymes [23]): 64; Ambit profiling: PIK3CA(M1043I) (various enzymes [24]; compound 1 uM): 81; Ambit profiling: CDC2L2 (various enzymes [25]): 100; Ambit profiling: SRPK1 (various enzymes [26]): 4.5; Ambit profiling: MYLK2 (various enzymes [27]): 29; Ambit profiling: MAP3K15 (various enzymes [28]): 84; Ambit profiling: BRAF(V600E) (various enzymes [29]; compound 1 uM): 100 |
| COc1c2c(nn1C)CN(C(C)C)C(=O)CCCn1cc(c(C(F)(F)F)n1)-c1c[nH]c3ncc-2cc13 [Compound 50, (Z)-5-isopropyl-35-methoxy-31-methyl-13-(trifluoromethyl)-11H,21H,31H-5-aza-2(3,5)-pyrrolo[2,3-b]pyridina-1(4,1),3(4,3)-dipyrazolacyclononaphan-6-one] | 11 | 3.8 | 81 | 0.1 | 79 | 12 | 83 | 83 | 97 | 100 | 73 | 100 | 100 | 19 | 84 | 0 | 3.3 | 27 | 20 | 54 | Ambit profiling: PIK3CA(H1047Y) (various enzymes [8]): 100; Ambit profiling: FGFR3(G697C) (various enzymes [10]): 6.4; Ambit profiling: KIT(D816H) (various enzymes [12]): 4.5; Ambit profiling: CLK2 (various enzymes [22]): 11; Ambit profiling: BRSK2 (various enzymes [23]): 72; Ambit profiling: PIK3CA(M1043I) (various enzymes [24]): 86; Ambit profiling: CDC2L2 (various enzymes [25]): 89; Ambit profiling: SRPK1 (various enzymes [26]): 30; Ambit profiling: MYLK2 (various enzymes [27]): 39; Ambit profiling: MAP3K15 (various enzymes [28]): 76; Ambit profiling: BRAF(V600E) (various enzymes [29]): 93 |

Source: patent US12157741B2, “Macrocyclic inhibitors of DYRK1A” (DANA-FARBER CANCER INSTITUTE, INC., priority 2018, dated 2024)
